The values that follow come from patent US20240299292A1, “STABLE SEMI-SOLID CHEWABLE GEL COMPOSITIONS AND METHODS OF MAKING AND USING THEREOF” (Seattle Gummy Company, priority 2021, published 2024).

Assay [1] in a line: ITC association constant of cetirizine-β-cyclodextrin complex. The class given is binding. Conditions: beta vs alpha and gamma cyclodextrin. The text has this:
Either the phenyl group or the 4-chlorophenyl group fit inside the ring structure. The inside cavity of cylcodextrins is largely hydrophobic which is favorable for aromatic systems that are also hydrophobic. The formation of the chelate structure is […] favorable due to electrostatic interactions of the pi system of the aromatic moiety with in the hydrophobic cavity and electronic interaction with the hydrogen atoms and […]. It is these electronic interactions between these systems of the cyclodextrin and the pi system that gives the favorable heat of formation.

The conditions of assay [2]: ITC measurements; cited from earlier work.
The conditions of assay [3]: ITC measurements; cited from earlier work. This is another data set of the same source. Background: Isothermal titration calorimetry measures the heat released or taken up as one component is titrated into another.
For assay [4] the following is noted: ITC measurements; cited from earlier work. The source holds these as a separate data set.

With `O=C(O)COCCN1CCN(C(c2ccccc2)c2ccc(Cl)cc2)CC1` (stereo not shown) [cetirizine], the “formation constant of beta cyclodextrin complex relative to alpha and gamma cyclodextrin” value in assay [1] is “nearly four times”. Moreover, the “association constant K(a), cetirizine-β-cyclodextrin complex” value in assay [2] is 5641 ± 358 M⁻¹. In assay [3], the “association constant K(a), cetirizine-α-cyclodextrin complex” value was 1434 ± 60 M⁻¹. For the same compound, in assay [4], the “association constant, cetirizine-γ-cyclodextrin complex” value is 1200 ± 50 M⁻¹.
